# Laboratory results as given in patent US12502379B2, “Ponesimod for avoiding worsening of fatigue-related symptoms in multiple sclerosis patients” (Vanda Pharmaceuticals Inc., priority 2019, dated 2025).
# Assays:
# [1] = tested on: adult subjects with relapsing MS; experiment: Combined unique active lesions (CUAL) on brain MRI from baseline to Week 108; format: in vivo, human
# Procedure: (§1) Secondary efficacy variables and testing strategy: Four secondary efficacy endpoints were analyzed as per the statistical testing strategy outlined in FIG. 1. • Change from baseline to Week 108 in fatigue-related symptoms as measured by the symptoms domain of the FSIQ-RMS patient-reported outcome [Fatigue] • Cumulative number of combined unique active lesions from baseline to Week 108 on brain MRI [CUALs] • Time to first 12-week confirmed disability accumulation (CDA) from baseline to EOS on Expanded Disability Status Scale (EDSS) [12-week CDA] • Time to first 24-week CDA from baseline to EOS on EDSS [24-week CDA]
# CUAL are new Gd+T1 lesions plus new or enlarging T2 lesions (without double-counting of lesions).
# MRI scans were performed at Visits 2 (Baseline), 10 (Week 60), and 14 (EOT) and at any unscheduled visit (U1, U2, etc.). If applicable, MRI scans also were performed at the corresponding visits in the PTOP (Visits 10A and 14A). Testing at all visits were performed up to 7 days prior to or after the visit date.
# MRI variables included the number and volume of new and total Gd+ lesions on T1-weighted MRI scans, number of new and enlarging lesions and lesion volume on T2-weighted MRI, and global measures of loss of brain tissue.
# T1-weighted imaging before and after i.v. administration of 0.1 mmol/kg body weight (=0.2 mL/kg) of Gd as well as PD-T2-weighted imaging was performed. […]
# [2] = tested on: adult subjects with relapsing MS; experiment: Time to first 24-week confirmed disability accumulation (CDA) on EDSS; format: in vivo, human
# Procedure: as §1
# A 24-week CDA is an increase of at least 1.5 in EDSS for subjects with a baseline EDSS score of 0.0 or an increase of at least 1.0 in EDSS for subjects with a baseline EDSS score of 1.0 to 5.0, or an increase of at least 0.5 in EDSS for subjects with a baseline EDSS score ≥5.5 which is to be confirmed after 24 weeks.
# Baseline EDSS is defined as the last EDSS score recorded prior to randomization. The initial EDSS increase, meeting the above criteria, is defined as the onset of disability accumulation.
# All EDSS measurements (with or without relapse, at a scheduled or unscheduled visit) were used to determine the onset of disability accumulation. […]
# [3] = 12-lead ECG heart rate on Day 1, change from pre-dose; format: in vivo, human
# Procedure: As per up-titration regimen, the dose of ponesimod on Day 1 is 2 mg.
# [4] = Reasons for premature treatment discontinuation; format: in vivo
# Procedure: A total of 1468 subjects were screened. Of those, 1133 subjects were randomized (567 to ponesimod 20 mg and 566 to teriflunomide 14 mg) across 162 sites in 28 countries, and 1131 subjects received at least one dose of study drug. The disposition of subjects is summarized in Table 1 and a summary of reasons (primary reason) for treatment discontinuation are shown in Table 2. Overall treatment and study discontinuation were balanced across both treatment arms. A total of 6.5% and 2.5% of the subjects discontinued due to AEs or tolerability related reasons in ponesimod 20 mg and teriflunomide 14 mg, respectively, while 1.9% and 4.3% discontinued due to efficacy related reasons. There were 2 deaths reported during the study—both on teriflunomide 14 mg.
# [5] = Treatment-emergent adverse events, Safety Set
# Procedure: A prospective, multicenter, randomized, double-blind, active controlled, parallel-group, phase III, superiority study was conducted.
# The Safety Set (SAF) included all randomized subjects who received at least one dose of study treatment. Subjects were analyzed based on actual treatment taken, not randomized treatment.
# [6] = Safety Set, ponesimod 20 mg N = 565, teriflunomide 14 mg N = 566
# [7] = ponesimod 20 mg, teriflunomide 14 mg
# [8] = Day 1 (ponesimod dose 2 mg per up-titration), Safety Set, N = 565 / 566
smiles,measurement,setting,value
"CCC/N=C1\S/C(=C\c2ccc(OC[C@H](O)CO)c(Cl)c2)C(=O)N1c1ccccc1C [Ponesimod, (R)-5-[3-chloro-4-(2,3-dihydroxy-propoxy)-benz[Z]ylidene]-2-([Z]-propylimino)-3-o-tolyl-thiazolidin-4-one]",Reduction of the number of CUALs between baseline and week 108 compared to teriflunomide 14 mg,[1]; ponesimod 20 mg,56%
same,CUAL treatment effect (Rate Ratio),"[1]; ponesimod 20 mg vs teriflunomide 14 mg, baseline to Week 108",0.44
same,"Time to first 24-week CDA, hazard ratio","[2]; ponesimod 20 mg vs teriflunomide 14 mg, stratified Cox regression",0.84
same,Reduction of the risk of 24-week CDA compared to teriflunomide 14 mg,"[2]; ponesimod 20 mg, not statistically significant",16%
same,Mean heart rate reduction compared to pre-dose (maximum),"[3]; Day 1, 2-hours post dose, ponesimod arm dose on Day 1 is 2 mg",−8.7 bpm
same,ECG HR effect: time of nadir / maximum mean heart rate reduction post-dose,"[3]; Day 1, first dose (ponesimod 2 mg per up-titration)",2 h
same,Subjects with asymptomatic post-dose HR≤40 bpm,"[3]; Day 1, all had pre-treatment HR<55 bpm",3
same,Premature treatment discontinuation: Death,[4]; [6],0 n
same,Subjects who discontinued due to AEs or tolerability related reasons,[4]; [7],6.5%
same,AESI effect on heart rate and rhythm (including hypotension) on Day 1: Subjects with at least one AE,[5]; [8],2.1%
same,"AESI heart rate and rhythm on Day 1, PT: Electrocardiogram QT prolonged",[5]; [8],0 n
same,"AESI heart rate and rhythm on Day 1, PT: Presyncope",[5]; [8],0 n
same,Subject with at least one AE (treatment-emergent),[5]; [6],88.8%
same,Subject with at least one AE leading to study drug discontinuation,[5]; [6],8.7%
same,Subject with at least one Fatal AE,[5]; [6],0 n
same,Subject with at least one Serious AE,[5]; [6],8.7%
same,"TEAEs leading to premature discontinuation of study drug, SOC: Reproductive system and breast disorders",[5]; [6],0 n
same,"TEAEs leading to premature discontinuation of study drug, SOC: Surgical and medical procedures",[5]; [6],0 n
same,Treatment-emergent AESI: Hepatobiliary disorders/Liver enzyme abnormality,[5]; [6],25.7%
same,Treatment-emergent AESI: Hypertension,[5]; [6],10.1%
same,Treatment-emergent AESI: Pulmonary events,[5]; [6],8.0%
same,TEAE: ALT increased,[5]; [7],19.5%
same,TEAE: headache,[5]; [7],11.5%
same,TEAE: nasopharyngitis,[5]; [7],19.3%
same,TEAE: upper respiratory tract infection,[5]; [7],10.6%
